*1 amine or outer side, *2 acyl side, *3 side chain or, on linkers, in order; H or OH if unused. Where a SMILES comes first, the peptide text is derived from it. Bridges are numbered along the chain shown (N, C = ends). [ ]: non-standard residue; d: D form. Diglycolyl = O=C(COCC(=O)[*:2])[*:1]; Cba = N[C@@H](CC1CCC1)C(=O)O; Nle = CCCC[C@H](N)C(=O)O

We go through 5 compounds from PMC11522901, “Translation of Deoxyribonucleic Acid into Synthetic Alpha Helical Peptides for Darwinian Evolution” (JACS Au, 2024).

One experiment deals with T1, MDM2 (Homo sapiens, UniProt Q00987).
T1 construct: made in house
T1 sequence (Q00987 whole entry, species assumed): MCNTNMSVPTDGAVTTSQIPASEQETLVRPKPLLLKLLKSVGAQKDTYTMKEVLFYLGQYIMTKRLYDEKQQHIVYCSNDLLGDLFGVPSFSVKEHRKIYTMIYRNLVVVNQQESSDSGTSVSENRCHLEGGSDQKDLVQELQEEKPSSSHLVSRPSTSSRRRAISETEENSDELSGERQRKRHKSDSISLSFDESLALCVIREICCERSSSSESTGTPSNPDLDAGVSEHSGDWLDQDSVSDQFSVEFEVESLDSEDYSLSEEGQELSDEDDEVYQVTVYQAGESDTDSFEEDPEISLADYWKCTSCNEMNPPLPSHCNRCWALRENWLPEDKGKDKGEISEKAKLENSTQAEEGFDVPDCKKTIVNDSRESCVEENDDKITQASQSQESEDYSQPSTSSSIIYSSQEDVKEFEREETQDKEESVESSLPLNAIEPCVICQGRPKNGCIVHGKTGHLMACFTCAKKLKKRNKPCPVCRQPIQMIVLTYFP
Nature of the experiment: Surface plasmon resonance (SPR) against captured GST-MDM2. To be noted: SPR Biacore T200, 25 °C, PBS-P+; GST-MDM2 captured via anti-GST antibody on CM5 chip; 2-fold dilutions 250 nM to 3.91 nM; association 250 s, dissociation 400 s. The format is binding. The procedure:
SPR experiments were performed on a Biacore T200 instrument (GE Healthcare) at 25 °C in PBS-P+ buffer (10× stock; Cytiva Life Sciences #28995084). One mL PP 96-well plates (Greiner #780201) were used for dilution directly in the plates. Anti-GST antibody (Cytiva #27457701) was chemically immobilized on a CM5 series S sensor chip (Cytiva Life Sciences #29149604) by EDC/NHS-mediated coupling. For this, an amine coupling kit (Cytiva Life Sciences #BR100633) and the recommended protocol were followed with the following specifications: 20 μg/mL of antibody diluted in 10 mM NaAc pH 5.0 buffer flowed over both flow channels for 600 s (flow rate 10 μL min^–1).
Kinetic measurements consisted of ligand capture of GST-MDM2 (200 nM, 350 s injection, flow rate 10 μL min^–1, stabilization 60 s), followed by injections (association, 250 s; dissociation, 400 s; flow rate, 30 μL min^–1) of decreasing concentrations of compounds (2-fold cascade dilutions from the starting concentration). The chip was regenerated between cycles by one injection of regeneration solution (10 mM glycine-HCl at pH 1.5) for 10 s at a flow rate of 30 μL min^–1, followed by a 120 s stabilization period. Binding was measured as resonance units over time after blank subtraction, and the data were interpreted using Biacore T200 software (version 3.2). The KD values were calculated based on steady-state affinity (1:1 binding). […]
5. Surface Plasmon Resonance Results […]
dotted lines representing the fittings from which the kinetic values are calculated. The compounds […]
shown in Figure 6 are tested at 250 nM (highest concentration) with a 2-fold dilution series until 3.91 nM (lowest concentration).
SPR Curves of compounds 4.1 and 4.4
4.1: Concentrations tested: 125 nM to 3.91 nM (2-fold dilutions) – KD: ND
Supplementary Figure 4. SPR curve of compound 4.1 against MDM2
As for `CCCC[C@H](NC(=O)[C@H](CC1CCC1)NC(=O)[C@H](CCC(N)=O)NC(=O)[C@H](C)NC(=O)[C@H](Cc1c[nH]c2ccccc12)NC(=O)[C@H](Cc1ccc(O)cc1)NC(=O)[C@H](CCC(N)=O)NC(=O)[C@H](CCCC)NC(=O)[C@H](Cc1ccccc1)NC(=O)[C@@H](NC(=O)[C@H](CC(C)C)NC(=O)CNC(C)=O)[C@@H](C)O)C(=O)N[C@@H](CO)C(=O)NCC(=O)N[C@@H](CCCNC(=N)N)C(N)=O` [1.1 (Linear)] (Ac-GLTF[Nle]QYWAQ[Cba][Nle]SGR-NH2; N-terminus and C-terminus assumed), the off-rate constant (koff) worked out at 0.0022 s⁻¹ and the kon was determined as 73000 M⁻¹ s⁻¹.
Taken in the same sequence, the figures for `CCCC[C@H](NC(=O)[C@H](CC1CCC1)NC(=O)[C@H](CCC(N)=O)NC(=O)[C@H](C)NC(=O)[C@H](Cc1c[nH]c2ccccc12)NC(=O)[C@H](Cc1ccc(O)cc1)NC(=O)[C@H](CCC(N)=O)NC(=O)[C@H](CCCC)NC(=O)[C@H](Cc1ccccc1)NC(=O)[C@@H](NC(=O)[C@H](CC(C)C)NC(=O)CNC(=O)CN(CCNC(=O)CN(CCNC(=O)CN(CCNC(=O)CN(CCNC(=O)[C@H](CCCNC(=N)N)NC(=O)COCCOCCNC(=O)[C@H](CCCNC(=N)N)NC(=O)CN(CCNC(=O)CN(CCNC(=O)CN(CCNC(=O)CN(CCNC(=O)CN(CCNC(=O)CN(CCNC(=O)CN(CCNC(=O)CN(CCNC(=O)[C@H](CCCNC(=N)N)NC(C)=O)C(=O)Cn1cnc2c(=O)[nH]c(N)nc21)C(=O)Cn1ccc(N)nc1=O)C(=O)Cn1ccc(N)nc1=O)C(=O)Cn1cnc2c(=O)[nH]c(N)nc21)C(=O)Cn1cc(C)c(=O)[nH]c1=O)C(=O)Cn1cnc2c(N)ncnc21)C(=O)Cn1cnc2c(=O)[nH]c(N)nc21)C(=O)Cn1cnc2c(=O)[nH]c(N)nc21)C(=O)Cn1ccc(N)nc1=O)C(=O)Cn1ccc(N)nc1=O)C(=O)Cn1cc(C)c(=O)[nH]c1=O)C(=O)Cn1cnc2c(N)ncnc21)[C@@H](C)O)C(=O)N[C@@H](CO)C(=O)NCC(=O)NCCN(CC(=O)NCCN(CC(=O)NCCN(CC(=O)NCCN(CC(=O)N[C@@H](CCCNC(=N)N)C(N)=O)C(=O)Cn1ccc(N)nc1=O)C(=O)Cn1cnc2c(=O)[nH]c(N)nc21)C(=O)Cn1cnc2c(=O)[nH]c(N)nc21)C(=O)Cn1ccc(N)nc1=O` [1.1 (PNA)] were 0.0014 s⁻¹ and 1.9e+06 M⁻¹ s⁻¹.
`CCCC[C@H](NC(=O)[C@H](CC(C)C)NC(=O)[C@H](CCC(N)=O)NC(=O)[C@H](C)NC(=O)[C@H](Cc1c[nH]c2ccccc12)NC(=O)[C@H](Cc1ccc(O)cc1)NC(=O)[C@H](CCC(N)=O)NC(=O)[C@H](CCCC)NC(=O)[C@H](Cc1ccccc1)NC(=O)[C@@H](NC(=O)[C@H](CC(C)C)NC(=O)CNC(=O)CN(CCNC(=O)CN(CCNC(=O)CN(CCNC(=O)CN(CCNC(=O)[C@H](CCCNC(=N)N)NC(=O)COCCOCCNC(=O)[C@H](CCCNC(=N)N)NC(=O)CN(CCNC(=O)CN(CCNC(=O)CN(CCNC(=O)CN(CCNC(=O)CN(CCNC(=O)CN(CCNC(=O)CN(CCNC(=O)CN(CCNC(=O)[C@H](CCCNC(=N)N)NC(C)=O)C(=O)Cn1cnc2c(=O)[nH]c(N)nc21)C(=O)Cn1ccc(N)nc1=O)C(=O)Cn1ccc(N)nc1=O)C(=O)Cn1cnc2c(=O)[nH]c(N)nc21)C(=O)Cn1cc(C)c(=O)[nH]c1=O)C(=O)Cn1cnc2c(N)ncnc21)C(=O)Cn1cnc2c(=O)[nH]c(N)nc21)C(=O)Cn1cnc2c(=O)[nH]c(N)nc21)C(=O)Cn1ccc(N)nc1=O)C(=O)Cn1ccc(N)nc1=O)C(=O)Cn1cc(C)c(=O)[nH]c1=O)C(=O)Cn1cnc2c(N)ncnc21)[C@@H](C)O)C(=O)N[C@@H](CO)C(=O)NCC(=O)NCCN(CC(=O)NCCN(CC(=O)NCCN(CC(=O)NCCN(CC(=O)N[C@@H](CCCNC(=N)N)C(N)=O)C(=O)Cn1ccc(N)nc1=O)C(=O)Cn1cnc2c(=O)[nH]c(N)nc21)C(=O)Cn1cnc2c(=O)[nH]c(N)nc21)C(=O)Cn1ccc(N)nc1=O` [2.1 (PNA)] had a koff of 0.0021 s⁻¹ and a kon of 1e+06 M⁻¹ s⁻¹.
The like results for `CCCC[C@H](NC(=O)[C@H](CC1CCC1)NC(=O)[C@H](CCC(N)=O)NC(=O)[C@H](C)NC(=O)[C@H](Cc1c[nH]c2ccccc12)NC(=O)[C@H](Cc1ccc(O)cc1)NC(=O)[C@H](CCC(N)=O)NC(=O)[C@H](CCCC)NC(=O)[C@H](Cc1ccc(F)c(F)c1)NC(=O)[C@@H](NC(=O)[C@H](CC(C)C)NC(=O)CNC(=O)CN(CCNC(=O)CN(CCNC(=O)CN(CCNC(=O)CN(CCNC(=O)[C@H](CCCNC(=N)N)NC(=O)COCCOCCNC(=O)[C@H](CCCNC(=N)N)NC(=O)CN(CCNC(=O)CN(CCNC(=O)CN(CCNC(=O)CN(CCNC(=O)CN(CCNC(=O)CN(CCNC(=O)CN(CCNC(=O)CN(CCNC(=O)[C@H](CCCNC(=N)N)NC(C)=O)C(=O)Cn1cnc2c(=O)[nH]c(N)nc21)C(=O)Cn1ccc(N)nc1=O)C(=O)Cn1ccc(N)nc1=O)C(=O)Cn1cnc2c(=O)[nH]c(N)nc21)C(=O)Cn1cc(C)c(=O)[nH]c1=O)C(=O)Cn1cnc2c(N)ncnc21)C(=O)Cn1cnc2c(=O)[nH]c(N)nc21)C(=O)Cn1cnc2c(=O)[nH]c(N)nc21)C(=O)Cn1ccc(N)nc1=O)C(=O)Cn1ccc(N)nc1=O)C(=O)Cn1cc(C)c(=O)[nH]c1=O)C(=O)Cn1cnc2c(N)ncnc21)[C@@H](C)O)C(=O)N[C@@H](CO)C(=O)NCC(=O)NCCN(CC(=O)NCCN(CC(=O)NCCN(CC(=O)NCCN(CC(=O)N[C@@H](CCCNC(=N)N)C(N)=O)C(=O)Cn1ccc(N)nc1=O)C(=O)Cn1cnc2c(=O)[nH]c(N)nc21)C(=O)Cn1cnc2c(=O)[nH]c(N)nc21)C(=O)Cn1ccc(N)nc1=O` [1.2 (PNA)] were, in that order, 0.002 s⁻¹ and 1.2e+06 M⁻¹ s⁻¹.
`CCCC[C@@H]1NC(=O)[C@H](CC2CCC2)NC(=O)[C@H](CCC(N)=O)NC(=O)[C@H](C)NC(=O)[C@H](Cc2c[nH]c3ccccc23)NC(=O)[C@H](Cc2ccc(O)cc2)NC(=O)[C@H](CCC(N)=O)NC(=O)[C@H](CCCC)NC(=O)[C@H](Cc2ccccc2)NC(=O)[C@H]([C@@H](C)O)NC(=O)[C@H](CC(C)C)NC(=O)CNC(=O)COCC(=O)NCCCC[C@@H](C(=O)N[C@@H](CCCNC(=N)N)C(N)=O)NC(=O)CNC(=O)[C@H](CO)NC1=O` [1.1 (Cyclic)] (GLTF[Nle]QYWAQ[Cba][Nle]SGKR-NH2; linker N-15 via Diglycolyl; C-terminus assumed): the koff is 0.0024 s⁻¹ and the kon came out at 320000 M⁻¹ s⁻¹.

The same experiment, now with this note: linear peptide without PNA versus PNA-constrained 1.1; 30 versus 0.7 nM.
In turn, `CCCC[C@H](NC(=O)[C@H](CC1CCC1)NC(=O)[C@H](CCC(N)=O)NC(=O)[C@H](C)NC(=O)[C@H](Cc1c[nH]c2ccccc12)NC(=O)[C@H](Cc1ccc(O)cc1)NC(=O)[C@H](CCC(N)=O)NC(=O)[C@H](CCCC)NC(=O)[C@H](Cc1ccccc1)NC(=O)[C@@H](NC(=O)[C@H](CC(C)C)NC(=O)CNC(C)=O)[C@@H](C)O)C(=O)N[C@@H](CO)C(=O)NCC(=O)N[C@@H](CCCNC(=N)N)C(N)=O` [1.1 (Linear)] (Ac-GLTF[Nle]QYWAQ[Cba][Nle]SGR-NH2; N-terminus and C-terminus assumed) had a loss of binding of 40 fold.

One may read the koff as a measure of how fast the partners let go of each other. Read a high koff as fast dissociation. As usually defined, the kon is a measure of how fast the partners come together. High values mean fast association, low ones slow association.
